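48-hour exposure; five concentrations; linearly interpolated endpoints. GI50 = concentration required for 50% inhibition of growth.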 Activity calls are given as the source filed them. Cut-off read from the data, not from the text of the source: active = GI50 up to about 1.1 µM and inactive = higher.
What was measured:
Assay in all cases: NCI tumour cell line growth inhibition, 48 h
DLD-1 = test system: DLD-1
DMS-114 = test system: DMS-114
HOP-18 = test system: HOP-18
KM-20L2 = test system: KM-20L2
LXFL 529 = test system: LXFL 529
M19-MEL = test system: M19-MEL
RXF 631 = test system: RXF 631
SNB-78 = test system: SNB-78
XF498 = test system: XF498

Measured: GI50

O=NN(CCCl)C(=O)N[C@H]1CC[C@@H](C(=O)O)CC1
inactive: DLD-1 > 100 µM | DMS-114 52.7 µM | HOP-18 > 69.5 µM | KM-20L2 > 100 µM | LXFL 529 > 100 µM | M19-MEL > 100 µM | RXF 631 > 100 µM | SNB-78 > 100 µM | XF498 > 100 µM

CC1CCC(O)C(C(O)CC2CC(=O)N(C)C(=O)C2)C1 (configuration not stated)
inactive: DLD-1 > 100 µM | DMS-114 > 100 µM | HOP-18 > 100 µM | KM-20L2 > 100 µM | LXFL 529 > 100 µM | M19-MEL > 100 µM | RXF 631 > 100 µM | SNB-78 > 100 µM | XF498 > 100 µM

C[N+](C)=c1nc(N2CCc3ccccc3C2)ss1.[O-][Cl+3]([O-])([O-])[O-]
inactive: DLD-1 90.4 µM | DMS-114 60.1 µM | HOP-18 > 100 µM | KM-20L2 > 100 µM | LXFL 529 69.3 µM | M19-MEL > 100 µM | RXF 631 > 100 µM | SNB-78 > 100 µM

CC1=C(C#N)C(N)=C2C(C)=C(C#N)C(N)=C12
inactive: DLD-1 > 100 µM | DMS-114 > 100 µM | KM-20L2 > 100 µM | LXFL 529 > 100 µM | M19-MEL > 100 µM | SNB-78 > 100 µM | XF498 > 100 µM

CCCCCCCCCC(=O)Oc1cccc2onc(C)c12
inactive: DLD-1 > 100 µM | DMS-114 > 100 µM | HOP-18 > 100 µM | KM-20L2 > 100 µM | LXFL 529 > 100 µM | M19-MEL > 100 µM | RXF 631 > 100 µM | SNB-78 > 100 µM

Oc1ncnc2c1nnn2CCCCCCCCCCCCn1nnc2c(O)ncnc21
inactive: DLD-1 > 91.2 µM | DMS-114 7.06 µM | HOP-18 24.2 µM | KM-20L2 > 100 µM | LXFL 529 33.6 µM | M19-MEL > 100 µM | SNB-78 19.2 µM

COc1ccc([C@H]2CC(=O)N3CCCC3N2)cc1 (some centres not stated)
inactive: DLD-1 > 100 µM | DMS-114 > 100 µM | HOP-18 43 µM | KM-20L2 > 100 µM | LXFL 529 > 100 µM | M19-MEL > 100 µM | SNB-78 > 100 µM | XF498 > 100 µM

Cc1nn2c(=O)n(-c3cccc(-n4nnc5c(-c6ccccc6)c(C)nn5c4=O)c3C)nnc2c1-c1ccccc1
inactive: DLD-1 22.8 µM | DMS-114 13.8 µM | HOP-18 4.94 µM | KM-20L2 19.5 µM | LXFL 529 24.7 µM | M19-MEL 23.6 µM | SNB-78 82.2 µM | XF498 20.9 µM

Brc1ccc2c(c1)C1(c3cc(Br)ccc3-2)c2cc(Br)ccc2-c2ccc(Br)cc21
inactive: DLD-1 > 100 µM | DMS-114 > 100 µM | HOP-18 > 100 µM | KM-20L2 > 100 µM | LXFL 529 > 100 µM | M19-MEL > 100 µM | RXF 631 > 100 µM | SNB-78 > 100 µM | XF498 > 100 µM

CCOC(=O)C1S/C(=N\c2ccc(Cl)c(Cl)c2)N=C1C (configuration not stated)
inactive: DLD-1 25.1 µM | HOP-18 96.8 µM | KM-20L2 20.9 µM | LXFL 529 34.4 µM | M19-MEL 26.2 µM | RXF 631 58.6 µM | XF498 35.6 µM

Cc1cn(C2CC(n3cncn3)C(C(C)O)O2)c(=O)[nH]c1=O (configuration not stated)
inactive: DLD-1 > 100 µM | DMS-114 > 100 µM | HOP-18 > 100 µM | KM-20L2 > 100 µM | LXFL 529 > 100 µM | M19-MEL > 100 µM | SNB-78 > 100 µM | XF498 > 100 µM

COC(OC)c1cccc2c1C1(O)CCC3(CC21)OCCCCO3 (configuration not stated)
inactive: DLD-1 > 100 µM | DMS-114 > 100 µM | HOP-18 > 100 µM | KM-20L2 > 100 µM | LXFL 529 > 100 µM | M19-MEL > 100 µM | SNB-78 > 100 µM

Cn1cnc([N+](=O)[O-])c1Sc1nc2cccnc2[nH]1
inactive: DLD-1 25.6 µM | DMS-114 24.8 µM | HOP-18 70.1 µM | KM-20L2 > 100 µM | LXFL 529 39.2 µM | RXF 631 1.73 µM | SNB-78 > 100 µM | XF498 45.8 µM

CC(C)(C)NN=C1C(C)(C)C(=NNC(C)(C)C)C1(C)C
inactive: DLD-1 > 100 µM | DMS-114 > 100 µM | KM-20L2 > 100 µM | LXFL 529 > 100 µM | M19-MEL > 100 µM | SNB-78 > 100 µM | XF498 > 100 µM

C/C(CN1C(=O)c2ccccc2C1=O)=N\NS(C)(=O)=O
inactive: DLD-1 > 100 µM | DMS-114 > 100 µM | HOP-18 > 100 µM | KM-20L2 > 100 µM | LXFL 529 > 100 µM | M19-MEL > 100 µM | SNB-78 > 100 µM | XF498 > 100 µM

CCOC(=O)C1Oc2ccc([N+](=O)[O-])c3c2C1(O)CCC3 (configuration not stated)
inactive: DLD-1 > 100 µM | DMS-114 > 100 µM | LXFL 529 > 100 µM | M19-MEL > 100 µM | RXF 631 > 100 µM | SNB-78 > 100 µM

N#C/C(=C/c1cccc(Oc2ccccc2)c1)c1ccccc1
inactive: DLD-1 > 100 µM | DMS-114 51.8 µM | HOP-18 > 100 µM | LXFL 529 > 100 µM | M19-MEL > 100 µM | SNB-78 > 100 µM | XF498 > 100 µM

O=C(O)CCSC(=O)Nc1cccc2ccccc12
inactive: DLD-1 > 100 µM | DMS-114 > 100 µM | HOP-18 > 100 µM | KM-20L2 > 100 µM | LXFL 529 > 100 µM | M19-MEL > 100 µM | RXF 631 > 100 µM | SNB-78 > 100 µM | XF498 > 100 µM

O=C(Cc1ccccc1)NN1C(=O)C(Cl)C1c1ccc(O)cc1 (configuration not stated)
inactive: DLD-1 > 100 µM | DMS-114 > 100 µM | HOP-18 > 100 µM | KM-20L2 > 100 µM | M19-MEL > 100 µM

N/C(=N\N=C=C1C(=O)Nc2ccc(F)cc21)NO
inactive: DLD-1 > 100 µM | DMS-114 > 100 µM | LXFL 529 > 100 µM | M19-MEL > 100 µM | RXF 631 > 100 µM | SNB-78 > 100 µM | XF498 > 100 µM

CCn1c2c(n(CC)c1=S)-c1c(n(CC)c(=S)n1CC)SSSS2
inactive: DLD-1 1.63 µM | DMS-114 15.8 µM | HOP-18 8.85 µM | KM-20L2 11.6 µM | LXFL 529 2.1 µM | M19-MEL 7.78 µM | RXF 631 15.3 µM | SNB-78 11.4 µM | XF498 1.52 µM

CC(C)(C)OC(=O)NC(CO)c1cccc(OCc2ccccc2)c1 (configuration not stated)
inactive: DLD-1 > 100 µM | DMS-114 23.1 µM | HOP-18 > 100 µM | KM-20L2 > 100 µM | LXFL 529 > 100 µM | M19-MEL > 89.7 µM | SNB-78 83.4 µM | XF498 > 100 µM

CCO/C=C\C12CCCC1NC(c1ccccc1)(c1ccccc1)O2 (configuration not stated)
inactive: DLD-1 32.3 µM | DMS-114 30.6 µM | KM-20L2 23.1 µM | LXFL 529 28.1 µM | M19-MEL 24.7 µM | SNB-78 54.8 µM

C=CCC1([C@H](C)[C@@H](OC(C)=O)c2cc(OC)c(OC)c(OC)c2)C[C@@H](OC)CCC1=O (some centres not stated)
inactive: DLD-1 16.2 µM | DMS-114 12.4 µM | KM-20L2 12 µM | LXFL 529 14.3 µM | M19-MEL 15.6 µM | XF498 17.9 µM

COC1=CC(=O)C2C(C1=O)C(c1ccc(Cl)cc1)[C@@H]2C (some centres not stated)
inactive: DLD-1 25.9 µM | DMS-114 21.5 µM | HOP-18 12.2 µM | KM-20L2 51.1 µM | LXFL 529 17.5 µM | M19-MEL 33.7 µM | SNB-78 36.8 µM | XF498 18.3 µM

COc1ccc(/C=C\c2cc(OC)c(OC(C)=O)c(OC)c2)cc1
inactive: DLD-1 14.2 µM | DMS-114 4.78 µM | KM-20L2 29.5 µM | LXFL 529 19.7 µM | M19-MEL 8.91 µM | RXF 631 23.5 µM | SNB-78 25.5 µM | XF498 30.3 µM

Reference: ChEMBL document CHEMBL1201862, “PubChem BioAssay data set” (2004)
